# According to patent US6362369B1, “Phthalic acid diamide derivatives fluorine-containing aniline compounds as starting material, agricultural and horticultural insecticides, and a method for application of the insecticides” (Nihon Nohyaku Co., Ltd., priority 1997, dated 2002):
# Key:
# Type in all cases: in vivo
# [1] = tested on: rice leafroller (Cnaphalocrocis medinalis); assay: Insecticidal effect on rice leafroller (Test Example 3); details: 500 ppm, 25° C., humidity 70%; for Insecticidal effect on rice leafroller (Test Example 3), judged grade / Insecticidal effect (Test Example 3), judged from mortality: rice lamina dip; for Insecticidal effect on rice leafroller (Test Example 3), judged grade: third-instar larvae; for Insecticidal effect on rice leafroller (Test Example 3), judged grade / Insecticidal effect, Test Example 3: four days after inoculation; for Insecticidal effect, Test Example 3: rice lamina immersed; for Insecticidal effect (Test Example 3), judged from mortality: 4 days after inoculation
# In short: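 Insecticidal effect is judged by a predefined criterion from dead/alive counts four days after infesting air-dried lamina with third-instar larvae, kept on moistened filter paper at 25° C, 70% humidity.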
# [2] = tested on: diamondback moth (Plutella xylostella); assay: Insecticidal effect on diamondback moth (Test Example 1); details: for Insecticidal effect on diamondback moth (Test Example 1), judged grade: mortality judged according to the criterion shown in Test Example 1; for Insecticidal effect, Test Example 1 / Insecticidal effect (Test Example 1), judged from mortality: diamondback moth; for Insecticidal effect (Test Example 1), judged from mortality: judged by the criterion of Test Example 1
# In short: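 Triplicate groups of 10 insects: eggs laid on Chinese cabbage seedling by adults, seedling immersed then air-dried, kept at 25° C. Day-6 hatch counts gave mortality, rated by criterion.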
# [3] = tested on: common cutworm (Spodoptera Litura); assay: Insecticidal effect on common cutworm (Test Example 2); details: 500 ppm, 25° C.; for Insecticidal effect on common cutworm (Test Example 2), judged grade / Insecticidal effect (Test Example 2), judged from mortality: cabbage leaf dip; for Insecticidal effect on common cutworm (Test Example 2), judged grade: second-instar larvae; for Insecticidal effect on common cutworm (Test Example 2), judged grade / Insecticidal effect, Test Example 2: eight days after inoculation; for Insecticidal effect, Test Example 2: cabbage leaf immersed; for Insecticidal effect (Test Example 2), judged from mortality: 8 days after inoculation
# In short: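 After the treated material air-dries, it goes into a dish, second-instar larvae are added, and the dish is closed. Incubation runs at 25° C. On day eight, dead and living larvae are scored, and the calculated mortality is rated on an effect scale.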
# [4] = rice leafroller third-instar larvae
# [5] = mortality judged by criterion of Test Example 1
# [6] = common cutworm second-instar larvae
# [7] = third-instar larvae of rice leafroller
# [8] = judged by the mortality criterion of Test Example 1
# [9] = second-instar larvae of common cutworm
smiles,measurement,setting,value
CC(C)NC(=O)c1c(C(=O)Nc2ccc(SC(F)(F)C(F)(F)Br)cc2)cccc1[N+](=O)[O-] [compound 628],"Insecticidal effect on rice leafroller (Test Example 3), judged grade",[1],A (100)
same,"Insecticidal effect on diamondback moth (Test Example 1), judged grade",[2],A (100)
same,"Insecticidal effect on common cutworm (Test Example 2), judged grade",[3],B (99-90)
Cc1cc(OC(F)(F)C(F)(F)c2ccccc2)ccc1NC(=O)c1cccc(Cl)c1C(=O)NC(C)C [compound 1087],"Insecticidal effect, Test Example 3",[1]; [4],A (100)
same,"Insecticidal effect, Test Example 1",[2]; [5],A (100)
same,"Insecticidal effect, Test Example 2",[3]; [6],A (100)
CC(C)NC(=O)c1cccc(Br)c1C(=O)Nc1ccc(OC(F)(F)F)cc1Cl [compound 323],"Insecticidal effect, Test Example 3",[1]; [7],A (100)
same,"Insecticidal effect, Test Example 1",[2]; [8],A (100)
same,"Insecticidal effect, Test Example 2",[3]; [9],C (89-80)
CC(C)NC(=O)c1c(I)cccc1C(=O)Nc1ccc(SC(F)(F)F)cc1 [compound 998],"Insecticidal effect, Test Example 3",[1]; [4],A (100)
same,"Insecticidal effect, Test Example 1",[2]; [5],A (100)
same,"Insecticidal effect, Test Example 2",[3]; [6],A (100)
CC(C)NC(=O)c1cccc(I)c1C(=O)Nc1ccc(OC(F)F)c(C(F)(F)F)c1 [compound 471],"Insecticidal effect on rice leafroller (Test Example 3), judged grade",[1],A (100)
same,"Insecticidal effect on diamondback moth (Test Example 1), judged grade",[2],A (100)
same,"Insecticidal effect on common cutworm (Test Example 2), judged grade",[3],A (100)
CCN(CC)C(=O)c1c(I)cccc1C(=O)Nc1ccc(-c2ccc(Cl)cc2)cc1C [compound 1615],"Insecticidal effect (Test Example 3), judged from mortality",[1]; [7],A (100)
same,"Insecticidal effect (Test Example 1), judged from mortality",[2],A (100)
same,"Insecticidal effect (Test Example 2), judged from mortality",[3]; [9],A (100)
CCCCCCNC(=O)c1c(I)cccc1C(=O)Nc1ccc(C(F)(F)C(F)(F)F)cc1C [compound 949],"Insecticidal effect, Test Example 3",[1]; [4],A (100)
same,"Insecticidal effect, Test Example 1",[2]; [5],A (100)
same,"Insecticidal effect, Test Example 2",[3]; [6],A (100)
Cc1cc(OC(F)(F)C(F)C(F)(F)F)ccc1NC(=O)c1ccccc1C(=O)NC(C)C (stereo not drawn) [compound 65],"Insecticidal effect, Test Example 3",[1]; [7],A (100)
same,"Insecticidal effect, Test Example 1",[2]; [8],A (100)
same,"Insecticidal effect, Test Example 2",[3]; [9],A (100)
Cc1cc(C(F)(F)C(F)(F)F)ccc1NC(=O)c1cccc(I)c1C(=O)NC(C)C(C)C (stereo not drawn) [compound 1033],"Insecticidal effect, Test Example 3",[1]; [4],A (100)
same,"Insecticidal effect, Test Example 1",[2]; [5],A (100)
same,"Insecticidal effect, Test Example 2",[3]; [6],A (100)
CC(C)NC(=O)c1cccc(Cl)c1C(=O)Nc1ccc(C(F)(F)C(F)(F)F)cc1 [compound 894],"Insecticidal effect on rice leafroller (Test Example 3), judged grade",[1],A (100)
same,"Insecticidal effect on diamondback moth (Test Example 1), judged grade",[2],A (100)
same,"Insecticidal effect on common cutworm (Test Example 2), judged grade",[3],A (100)
CC(C)NC(=O)c1c(C(=O)Nc2ccc(C(F)(F)F)cc2)cccc1[N+](=O)[O-] [compound 606],"Insecticidal effect on rice leafroller (Test Example 3), judged grade",[1],A (100)
same,"Insecticidal effect on diamondback moth (Test Example 1), judged grade",[2],A (100)
same,"Insecticidal effect on common cutworm (Test Example 2), judged grade",[3],D (79-50)
COc1ccc(-c2ccccc2)cc1NC(=O)c1c(Cl)cccc1C(=O)NC(C)C [compound 1295],"Insecticidal effect, Test Example 3",[1]; [4],A (100)
same,"Insecticidal effect, Test Example 1",[2]; [5],A (100)
same,"Insecticidal effect, Test Example 2",[3]; [6],A (100)
CC(C)NC(=O)c1cccc(I)c1C(=O)Nc1ccc(C(F)(F)C(F)(F)C(F)(F)F)cc1 [compound 417],"Insecticidal effect, Test Example 3",[1]; [7],A (100)
same,"Insecticidal effect, Test Example 1",[2]; [8],A (100)
same,"Insecticidal effect, Test Example 2",[3]; [9],A (100)
Cc1cc(Sc2ccc(Cl)cc2)ccc1NC(=O)c1cccc(I)c1C(=O)NC(C)C [compound 404],"Insecticidal effect, Test Example 3",[1]; [7],A (100)
same,"Insecticidal effect, Test Example 1",[2]; [8],A (100)
same,"Insecticidal effect, Test Example 2",[3]; [9],A (100)
CCN(CC)C(=O)c1c(Cl)cccc1C(=O)Nc1ccc(C(F)(F)C(F)(F)F)cc1C [compound 1535],"Insecticidal effect (Test Example 3), judged from mortality",[1]; [7],A (100)
same,"Insecticidal effect (Test Example 1), judged from mortality",[2],A (100)
same,"Insecticidal effect (Test Example 2), judged from mortality",[3]; [9],A (100)
Cc1cc(C(F)(F)C(F)(F)F)ccc1NC(=O)c1cccc(Cl)c1C(=O)NC(C)C [compound 128],"Insecticidal effect, Test Example 3",[1]; [7],A (100)
same,"Insecticidal effect, Test Example 1",[2]; [8],A (100)
same,"Insecticidal effect, Test Example 2",[3]; [9],D (79-50)
Cc1cc(C(F)(F)C(F)(F)F)ccc1NC(=O)c1cccc(Cl)c1C(=O)NC(C)(C)C#Cc1ccc(C(F)(F)F)cc1 [compound 1585],"Insecticidal effect (Test Example 3), judged from mortality",[1]; [7],A (100)
same,"Insecticidal effect (Test Example 1), judged from mortality",[2],A (100)
same,"Insecticidal effect (Test Example 2), judged from mortality",[3]; [9],A (100)
CCN(CC)C(=O)c1c(I)cccc1C(=O)Nc1ccc(OC(F)(F)F)cc1C [compound 1533],"Insecticidal effect (Test Example 3), judged from mortality",[1]; [7],A (100)
same,"Insecticidal effect (Test Example 1), judged from mortality",[2],A (100)
same,"Insecticidal effect (Test Example 2), judged from mortality",[3]; [9],A (100)
